The subject of data set [1] is Salmonella typhimurium (TA 100). The data set is described as follows: Test 3: detoxification of the reference glycotoxin methyl-glyoxal (MGO), Ames pre-incubation test. In kind it is cell-based. The method, then: […] The resulting mixture was incubated 30 minutes at 37° C. under orbital stirring (122 rpm).
(§1) The counting of colonies was then achieved manually.
In addition to the N-((4-imidazolyl)ethyl)-α, β-diaminopropanamide compound, the following compounds according to the invention were also tested at different concentrations: • N-((4-hydroxyphenyl)ethyl)-α,β-diaminopropanamide • N-((4-imidazolyl)ethyl)-α,γ-diaminobutanamide • N-((3,4-dihydroxyphenyl)ethyl)-α,β-diaminopropanamide • N-((4-imidazolyl)ethyl)-L-lysinamide
The results are gathered in table 3 below, compared to the PBS phosphate buffer (negative control).

For data set [2], the system named is purified histones, enriched with H1 histones. Kind of data set: Test 1: protection of histones towards methyl-glyoxal (MGO), fluorimetry of the dialyzed mixture. In kind it is biochemical. Particulars: for RFU (fluorescence of dialyzed mixture, indicative of histone damage by MGO): compound 10 mM + histones + MGO 10 mM, 24 h at 37° C., excitation 340 nm, emission 470 nm, control histones + MGO 62231; for formation of non-enzymatic glycosylation products from reaction of glycotoxin with histones: result in words. As for the experimental part:
A solution of purified histones (5 mg/l), enriched with H1 histones, was incubated in the presence of the reference glycotoxin MGO (10 mM) during 24 h at 37° C. under stirring. In order to follow specifically fluorescence of products from non-enzymatic glycosylation of histones, it was necessary to get rid of MGO fluorescence as well as the one of the glycotoxin-trapper products. For this, the reaction mixture was dialyzed. Then it was introduced in a dialysis tape and three successive 3 hour-baths were run, each one in a NaH2PO4 buffer solution (83.3 mM) in which MGO was diluted. Dialyzed mixture fluorescence which was indicative of the damage of histones made by reaction with MGO (adduct formation) was measured by fluorimetry (λ excitation: 340 nm; λ emission: 470 nm). The measure unit corresponds to RFU (for “Relative Fluorescence Unit”).

Data set [3] concerns Salmonella typhimurium (TA 100). Kind of data set: Test 2: detoxification of glycotoxins released by fructosylated casein, Ames pre-incubation test without metabolic activator. In kind it is cell-based. The note with it: for Number of revertants: TA 100, PBS control 84.
Source text: The study was achieved on a Salmonella typhimurium (TA 100) bacterial strain which belongs to reference strains used for the Ames regulatory test (ICH steering committee, Jul. 19, 1995, Guidance on specific aspect of regulatory genotoxicity tests for pharmaceuticals). The objective was to determine, in the mutated strains' colonies, the number of revertant colonies which are representative of mutagenesis in casein-fructose system, with or without a compound according to the invention.
Experimentally, 2.7 g of D-(+)-fructose were solubilized at room temperature in 100 mL of phosphate buffer. After collecting 20 g of the colourless limpid solution (Cfructose=150 mM), 0.600 g of sodium caseinate were introduced until complete dissolution. The solution was then introduced in 2×10mL in screw-top test tubes, then placed in an oil bath at 120° C. during 1 h.
To different concentrations (400 μl) of compound according to the invention were successively added 500 μl of glycated casein and 100 μl of the above-mentioned bacterial suspension. The resulting mixture was incubated 30 minutes at 37° C. under orbital stirring (122 rpm).
as §1
The results are presented in table 2 below, compared to a negative control (PBS phosphate buffer).

For data set [4] the test system is unchanged. The note with it: positive control; PBS control 88.
Method: The study was carried out according to an almost-identical manner to the here-above test 2, with however D-glucose replacing D-(+)-fructose and according to following conditions. Experimentally, 18.02 g of D-glucose were solubilized at room temperature in 100 mL of water. 10 mL of the solution corresponding to 10 mM of the compound according to the invention, N-((4-imidazolyl)ethyl)-α,β-diamino-propanamide, were sampled and introduced after a pH adjustment by sodium hydroxide. The resulting reaction mixture was then introduced in a screw-top test tube, then heated at 100° C. for 80 minutes.
In parallel, the TA 100 strain was cultured in the Nutrient Broth Oxoid N° 2 (NBO2) supplemented with Ampicilline. The culture was placed overnight at 37° C. in an orbital shaker (88 rpm) so that bacteria were in growth exponential phase (10^7 to 10^9 bacteria/ml).
100 μl of test solution were added to 100 μl of the above-mentioned bacterial suspension and to 500 μl of PBS phosphate buffer, the resulting mixture being incubated 1 h at 37° C. under orbital stirring (122 rpm). 2 ml of soft-agar supplemented in biotin histidine and maintained at 45° C. were added. After mixing with Vortex, they were deposited in a Petri dish containing Vogel-Bonner hard-agar. After solidification, dishes were transferred in the incubator at 37° C. during 48-72 h. […]
Setting [5] is: compound 75 μM + methyl-glyoxal 140 μM, PBS control 91, MGO alone 161.
[6] abbreviates: compound 750 μM + methyl-glyoxal 140 μM, PBS control 91, MGO alone 161.

Like-named read-outs stand apart in the source and are kept apart here.

For the molecule `NCC(N)C(=O)NCCc1ccc(O)c(O)c1` (stereo not drawn) [N-((3,4-dihydroxyphenyl)ethyl)-α,β-diaminopropanamide], the Number of revertants turned out to be 161 in data set [1] (setting [5]) and 111 in data set [1] (setting [6]).
In the case of `CC(=O)C=O` [Methyl-glyoxal, methyl-glyoxal, reference compound], the Number of revertants in data set [1] (methyl-glyoxal alone 140 μM, PBS control 91) came to 161; in data set [1] (methyl-glyoxal alone 280 μM, PBS control 72) it was 308.
Consider `NCCC(N)C(=O)NCCc1c[nH]cn1` (stereo not drawn) [N-((4-imidazolyl)ethyl)-α,γ-diaminobutanamide], for which, in data set [2], the “RFU (fluorescence of dialyzed mixture, indicative of histone damage by MGO)” value was 21526 RFU and the “formation of non-enzymatic glycosylation products from reaction of glycotoxin with histones” value was “strongly decrease”. The Number of revertants in data set [1] (setting [5]) was 154. In addition, the Number of revertants in data set [1] (setting [6]) was 116.
Regarding `NCC(N)C(=O)NCCc1c[nH]cn1` (stereo not drawn) [N-((4-imidazolyl)ethyl)-α,β-diaminopropanamide], the “RFU (fluorescence of dialyzed mixture, indicative of histone damage by MGO)” value in data set [2] is reported as 20441 RFU. Also, in data set [2], the “formation of non-enzymatic glycosylation products from reaction of glycotoxin with histones” value is “strongly decrease”. In data set [3] (compound 7.5 mM + fructosylated casein, PBS control = 1), the RFU is recorded as 1.42 RFU. Moreover, the Number of revertants in data set [3] (compound 7.5 mM + fructosylated casein) is given as 119; in data set [3] (compound 15 mM + fructosylated casein), 93; in data set [1] (compound 75 μM + methyl-glyoxal 280 μM, PBS control 72, MGO alone 308), 141; in data set [1] (compound 750 μM + methyl-glyoxal 280 μM, PBS control 72, MGO alone 308) it was 95. In addition, the “revertant count relative to PBS control” value in data set [3] (compound 15 mM + fructosylated casein, PBS control = 1) came to 1.11 RFU. The “toxicity of the formed glycotoxins” value in data set [3] (result in words, dose-effect relationship observed) was “strongly decrease”.
`[N-]=[N+]=[N-]` [NaN3, sodium azide]: the Number of revertants in data set [4] came out at 211.
Turning to `NCCCC[C@H](N)C(=O)NCCc1c[nH]cn1` [N-((4-imidazolyl)ethyl)-L-lysinamide], the Number of revertants in data set [1] (setting [5]) was 141; in data set [1] (setting [6]), 132.
`NCC(N)C(=O)NCCc1ccc(O)cc1` (stereo not drawn) [N-((4-hydroxyphenyl)ethyl)-α,β-diaminopropanamide]: in data set [1] (setting [5]), the Number of revertants is given as 152.

Source of the values: patent US8993611B2, “Family of polyamine arylethylamide compounds, and their cosmetic or dermocosmetic use” (Exsymol, priority 2012, dated 2015).
